# Data: patent US12692253B2, “Antimicrobial compounds and methods” (Curza Global, LLC, priority 2019, dated 2026)
# Like-named read-outs stand apart in the source and are kept apart here.
# What was measured:
# E. coli (Ec) = assay: Broth microdilution minimum inhibitory concentration (MIC), CLSI; format: cell-based; settings: for MIC: Escherichia coli, read-out: E. coli + bicarb MIC
# In short: (§1)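 Two-fold serial dilutions in CAMHB, optionally with sodium bicarbonate (6.25 or 25 mM final) or heat-inactivated human serum (0-50%), 8 concentrations, triplicate. Inoculum 5×10^4 CFU/well from log-phase cultures grown at 35±2 °C to 0.5 McFarland.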
# S. aureus (Sa) = assay: as above; format: cell-based; settings: for MIC: Staphylococcus aureus, read-out: Sa + bicarb MIC
# In short: as §1
# P. aeruginosa (Pa) = assay: as above; format: cell-based; settings: for MIC: Pseudomonas aeruginosa, read-out: Pa MIC + bicarb
# In short: as §1
# A. baumannn (Ab) = assay: as above; format: cell-based; settings: for MIC: read-out: Ab + bicarb MIC
# In short: as §1
# E. faecalis (Ef) = assay: as above; format: cell-based; settings: for MIC: Enterococcus faecalis, read-out: Ef + bicarb MIC
# In short: as §1
# [1] = biological target: Rabbit Reticulocyte Lysate (eukaryotic protein synthesis); assay: Rabbit reticulocyte lysate luciferase assay (inhibition of eukaryotic protein synthesis); format: biochemical; settings: read-out: Rabbit reticulocyte IC50 (μM/% inhib.)
# In short: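 Percent inhibition calculated against water-only controls from luminescence; background set by lysate lacking RNA. Compounds, 8-point 2-fold titration, incubated 90 minutes at 30° C with nuclease-treated rabbit reticulocyte lysate programmed with luciferase control RNA plus complete amino acids.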
# [2] = system: E. coli S30 extract (bacterial protein synthesis); assay: E. coli S30 extract coupled transcription-translation luciferase assay (inhibition of bacterial protein synthesis); format: biochemical; settings: read-out: S30 IC50 (μM/% inhib.)
# In short: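 Luciferase luminescence quantified inhibition of protein synthesis relative to water controls, with no-DNA reactions giving background. Compounds in 2-fold serial dilution (8 levels) were incubated 1 hour at 37 °C with E. coli S30 extract, amino acids and pBESTluc plasmid, then chilled to stop.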
# [3] = growth medium with sodium bicarbonate
# [4] = A. baumannn, growth medium with sodium bicarbonate
# [5] = growth medium supplemented with sodium bicarbonate
# [6] = class by IC50 or % inhibition @ 1 μM
SMILES,MIC (E. coli (Ec); [3]) [µg/mL],MIC (S. aureus (Sa); [3]) [µg/mL],MIC (P. aeruginosa (Pa); [3]) [µg/mL],MIC (A. baumannn (Ab); [4]) [µg/mL],MIC (E. faecalis (Ef); [3]) [µg/mL],IC50 ([1]; % inhibition @ 1 μM) [µM],IC50 ([2]; % inhibition @ 1 μM) [µM],MIC (E. coli (Ec); [5]) [µg/mL],MIC (S. aureus (Sa); [5]) [µg/mL],MIC (P. aeruginosa (Pa); [5]) [µg/mL],MIC (A. baumannn (Ab); Acinetobacter baumannii) [µg/mL],MIC (E. faecalis (Ef); [5]) [µg/mL],"IC50 [1, 6] [µM]","IC50 [2, 6] [µM]",E. coli + bicarb MIC (E. coli (Ec); [3]),Sa + bicarb MIC (S. aureus (Sa); [3]),Pa MIC + bicarb (P. aeruginosa (Pa); [3]),Ab + bicarb MIC (A. baumannn (Ab); [4]),Ef + bicarb MIC (E. faecalis (Ef); [3])
CC(C)(N)C(=O)N1CCN(C(=O)Nc2ccn(-c3ccc(C[C@H](N)C(=O)N4C[C@@H]5[C@@H](CN)[C@@H]5C4)cc3)c(=O)n2)CC1 [Compound 182],> 32,> 32,> 32,> 32,> 32,≥ 1,≥ 1,–,–,–,–,–,–,–,–,–,–,–,–
CC(C)(N)C(=O)N1CCN(C(=O)Nc2ccn(-c3cccc(CCN4CC5CC5(CN)C4)c3)c(=O)n2)CC1 (stereo not drawn) [Compound 142],–,–,–,–,–,–,–,< 8,8 to 32,> 32,> 32,8 to 32,≥ 1,0.5 to 1,–,–,–,–,–
CC(C)(N)C(=O)N1CCN(C(=O)Nc2ccn(-c3ccc(CN4C[C@@H]5C(C(C)(C)N)[C@@H]5C4)cc3)c(=O)n2)CC1 (stereo partly drawn) [Compound 206],< 8,< 8,> 32,> 32,8 to 32,≥ 1,< 0.5,–,–,–,–,–,–,–,–,–,–,–,–
CC(Cc1ccc(-n2ccc(NC(=O)N3CCN(C(=O)C(C)(C)N)CC3)nc2=O)cc1)N1CCC2(CC1)CC(N)C2 (stereo not drawn) [Compound 114],–,–,–,–,–,–,–,< 8,< 8,8 to 32,8 to 32,< 8,≥ 1,< 0.5,–,–,–,–,–
CC(Cc1ccc(-n2ccc(NC(=O)N3CCN(C(=O)C(C)(C)N)CC3)nc2=O)cc1)N1CC2(CCC2N)C1 (stereo not drawn) [Compound 111],–,–,–,–,–,–,–,< 8,< 8,> 32,> 32,8 to 32,≥ 1,≥ 1,–,–,–,–,–
CC(Cc1ccc(-n2ccc(NC(=O)N3CCN(C(=O)[C@H]4C[C@@H](N)C4)CC3)nc2=O)cc1)N1C[C@@H]2[C@@H](CN)[C@@H]2C1 (stereo partly drawn) [Compound 232],< 8,< 8,> 32,> 32,> 32,≥ 1,≥ 1,–,–,–,–,–,–,–,–,–,–,–,–
CC(Cc1ccc(-n2ccc(NC(=O)N3CCN(C(=O)C(C)(C)N)CC3)nc2=O)cc1)N1CC2CCCC(N)C2C1 (stereo not drawn) [Compound 216],< 8,< 8,> 32,> 32,< 8,≥ 1,< 0.5,–,–,–,–,–,–,–,–,–,–,–,–
CCC(Cc1ccc(-n2ccc(NC(=O)N3CCN(C(=O)C(C)(C)N)CC3)nc2=O)cc1)N1CC2CCC(N)CC2C1 (stereo not drawn) [Compound 244],–,–,–,–,–,≥ 1,0.5 to 1,–,–,–,–,–,–,–,+++ (An MIC value (μg/mL) that is less than 8 μg/mL),+++ (An MIC value (μg/mL) that is less than 8 μg/mL),+ (An MIC (μg/mL) value that is 32 μg/mL or greater),+ (An MIC (μg/mL) value that is 32 μg/mL or greater),++ (An MIC value (μg/mL) that is 8 μg/mL or greater and less than 32 μg/mL)
CCN(C(C)Cc1ccc(-n2ccc(NC(=O)N3CCN(C(=O)C(C)(C)N)CC3)nc2=O)cc1)C12CC(CN)(C1)C2 (stereo not drawn) [Compound 201],< 8,< 8,> 32,> 32,< 8,≥ 1,< 0.5,–,–,–,–,–,–,–,–,–,–,–,–
CC(Cc1ccc(-n2ccc(NC(=O)N3CCN(C(=O)C[C@H](C)N)CC3)nc2=O)cc1)N1C[C@@H]2[C@@H](CN)[C@@H]2C1 (stereo partly drawn) [Compound 231],< 8,< 8,> 32,> 32,> 32,≥ 1,≥ 1,–,–,–,–,–,–,–,–,–,–,–,–
CC(Cc1ccc(-n2ccc(NC(=O)N3CCN(C(=O)C(C)(C)N)CC3)nc2=O)cc1C(F)(F)F)N1C[C@@H]2[C@@H](N)[C@@H]2C1 (stereo partly drawn) [Compound 209],> 32,> 32,> 32,> 32,> 32,≥ 1,≥ 1,–,–,–,–,–,–,–,–,–,–,–,–
CC(Cc1ccc(-n2ccc(NC(=O)N3CCN(C(=O)[C@@H](N)CCCCN)CC3)nc2=O)cc1)N1C[C@@H]2[C@@H](CN)[C@@H]2C1 (stereo partly drawn) [Compound 240],< 8,8 to 32,> 32,> 32,> 32,≥ 1,< 0.5,–,–,–,–,–,–,–,–,–,–,–,–
